What is called inhibition is the share of the control response that was lost under treatment. One may read the pIC50 as the IC50 on a negative log10 scale, so that one unit is a factor of ten.

pIC50: −log10 of the molar value. In brackets after ≈: the same amount, converted by molar mass. A value given as a limit tells only on which side of the number the result lay.

Data on 4 molecules can be found in US20060258729A1, “Antibacterial pyrazole carboxylic acid hydrazides” (priority 2002, published 2006).

The test system of test [1] is Escherichia coli strain J53. Briefly: Inhibition of bacterial growth (MIC), Ec. The note with it: 16 to 18 hours, 37° C., read-out: Minimum Inhibitory Concentration for Bacterial Growth, Ec. In kind it is cell-based. As to the method:
(§1) Each compound was assayed against a panel of a strain of Bacillus subtilis, of strains of antibiotic-resistant and sensitive Enterococcus and Staphylococcus species, and of a strain of the Gram-negative bacterium Escherichia coli. Compounds were dissolved in DMSO at 100× the desired highest concentration and added to one well of a 96-well microassay plate. Two-fold serial drug dilutions were made across the plate in DMSO to yield 11 concentrations (usually 80-0.078 μg/mL) plus an untreated control. Drugs were then transferred to fresh plates using 1.5 μL per well. Log phase cultures were diluted to yield a concentration of 1×10^5 colony forming units/mL in either LB or BHI medium and transferred to the plates containing drug for a final volume of 150 μL. Each well, including the DMSO controls, contained a final concentration of 1% DMSO. Plates were incubated with shaking at 37° C. for 16 to 18 hours. Cell growth was determined by measuring optical density (570 nm, 1 cm path length) in a microplate reader. MIC (minimum inhibitory concentration) is equivalent to the lowest concentration at which growth is not observed. The bacterial strains and MIC determinations have been well characterized and are described elsewhere (Tarantino et al., Antimicrob. Agents Chemother., 43: 1982-1987 (1999); Daly et al., Antimicrob. Agents Chemother., 44: 2217-2221 (2000)).

Test [2] concerns E. faecium clinical isolate. Description: Inhibition of bacterial growth (MIC), Efcm. In kind it is cell-based. The note with it: Enterococcus faecium, 16 to 18 hours, 37° C., read-out: Minimum Inhibitory Concentration for Bacterial Growth, Efcm. Here is the method:
as §1

For another test, the system named is S. aureus Smith strain. Briefly: Inhibition of bacterial growth (MIC), Sm. In kind it is cell-based, Staphylococcus aureus. The note with it: Staphylococcus aureus, 16 to 18 hours, 37° C., read-out: Minimum Inhibitory Concentration for Bacterial Growth, Sm. Here is the method:
as §1

For test [3], the system named is Bacillus subtilis strain BD54. Description: Inhibition of bacterial growth (MIC), Bs. In kind it is cell-based. The note with it: 16 to 18 hours, 37° C., read-out: Minimum Inhibitory Concentration for Bacterial Growth, Bs. As to the method:
as §1

Another test addresses T1, B. subtilis pol IIIC (Bacillus subtilis, UniProt P13267).
T1 construct: made in house
Description: DNA polymerase assay, B. subtilis pol IIIC. In kind it is biochemical. The note with it: for inhibition at 80 µg/mL: 80 μg/mL (190-260 μM) final concentration, all four dNTPs, read-out: Percent Enzymatic Inhibition B. subtilis pol IIIC. As to the method: Recombinant, purified pol IIIC and pol IIIE from Bacillus subtilis were obtained using known methods (Hammond et al., Gene 98: 29-36 (1991), regarding pol IIIC; Barnes et al., J. Bacteriol. 184, 3834-3838 (2002), regarding pol IIIE). Recombinant, purified pol IIIE from Escherichia coli was obtained from a commercial source (Enzyco, Denver, Colo.). The enzyme assays were performed in 96-well plate format using the same assay mix for all three enzymes. […] Dilutions of compounds were added to the plate in 1% DMSO (1 μL/well). Assays were initiated by the addition of 0.025 to 0.06 units of enzyme (1 unit is the amount required to incorporate 250 pmoles of [^3H] dTMP in a standard assay), incubated for 10 min at 30° C. and terminated by the addition of 200 μL of cold 10% trichloroacetic acid, 10 mM sodium pyrophosphate. Precipitated labeled DNA was collected on glass fiber filter plates that had been pre-wet with ice cold 1 M HCl, 100 mM sodium pyrophosphate. The plates were washed with the HCl solution followed by ice cold 90% ethanol and then dried and counted in a liquid scintillation counter. […] In addition, percent inhibition values are calculated as the percent reduction in the activity of a DMSO (diluent) control.

Test [4] relates to methicillin-resistant S. aureus strain 1094. Briefly: Inhibition of bacterial growth (MIC), MRSA. The note with it: Staphylococcus aureus, MRSA, 16 to 18 hours, 37° C., read-out: Minimum Inhibitory Concentration for Bacterial Growth, MRSA. In kind it is cell-based, Staphylococcus aureus. As to the method: as §1
Test [5] concerns the target T2, B. subtilis pol IIIE (Bacillus subtilis, UniProt O34623).
T2 construct: made in house
Description: DNA polymerase assay, B. subtilis pol IIIE. The note with it: for inhibition at 80 µg/mL: 80 μg/mL (190-260 μM) final concentration, all four dNTPs, read-out: Percent Enzymatic Inhibition B. subtilis pol IIIE; for pIC50: B. subtilis Pol IIIE IC50, 4 dNTPs. In kind it is biochemical. As to the method:
(§2) Recombinant, purified pol IIIC and pol IIIE from Bacillus subtilis were obtained using known methods (Hammond et al., Gene 98: 29-36 (1991), regarding pol IIIC; Barnes et al., J. Bacteriol. 184, 3834-3838 (2002), regarding pol IIIE). Recombinant, purified pol IIIE from Escherichia coli was obtained from a commercial source (Enzyco, Denver, Colo.). The enzyme assays were performed in 96-well plate format using the same assay mix for all three enzymes. Each 25 μL assay contained 30 mM Tris, pH 7.5, 10 mM magnesium acetate, 4 mM dithiothreitol, 20% glycerol, with 10 μM dATP, dCTP, dGTP and dTTP (3H-labelled at 1.44 Ci/mmole) and 0.4 mg/mL activated calf thymus DNA as substrates. Dilutions of compounds were added to the plate in 1% DMSO (1 μL/well). Assays were initiated by the addition of 0.025 to 0.06 units of enzyme (1 unit is the amount required to incorporate 250 pmoles of [^3H] dTMP in a standard assay), incubated for 10 min at 30° C. and terminated by the addition of 200 μL of cold 10% trichloroacetic acid, 10 mM sodium pyrophosphate. Precipitated labeled DNA was collected on glass fiber filter plates that had been pre-wet with ice cold 1 M HCl, 100 mM sodium pyrophosphate. The plates were washed with the HCl solution followed by ice cold 90% ethanol and then dried and counted in a liquid scintillation counter. The calculated IC50 is the concentration needed to inhibit 50% of the DNA polymerase activity in the presence of all four dNTP substrates. In addition, percent inhibition values are calculated as the percent reduction in the activity of a DMSO (diluent) control.

The subject of test [6] is vancomycin-resistant Enterococcus strain B42762. Briefly: Inhibition of bacterial growth (MIC), VRE. In kind it is cell-based. The note with it: VRE, 16 to 18 hours, 37° C., read-out: Minimum Inhibitory Concentration for Bacterial Growth, VRE. As to the method: as §1
Test [7] concerns the target T2, B. subtilis pol IIIE. Description: DNA polymerase assay, B. subtilis pol IIIE. In kind it is biochemical.
The next test deals with T3, E. coli pol IIIE (Escherichia coli, UniProt P10443).
T3 construct: purchased Enzyco, Denver, Colo
Briefly: DNA polymerase assay, E. coli pol IIIE. In kind it is biochemical. The note with it: 80 μg/mL (190-260 μM) final concentration, all four dNTPs. Here is the method:
as §2

The subject of test [8] is Staphylococcus aureus strain IP 8. Description: Inhibition of bacterial growth (MIC), Sa. The note with it: IP8, 16 to 18 hours, 37° C., read-out: Minimum Inhibitory Concentration for Bacterial Growth, Sa. In kind it is cell-based. As to the method: as §1
The test system of test [9] is Enterococcus faecalis strain 29212. Briefly: Inhibition of bacterial growth (MIC), Efcl. In kind it is cell-based. The note with it: 16 to 18 hours, 37° C., read-out: Minimum Inhibitory Concentration for Bacterial Growth, Efcl. As to the method:
as §1

In the next test the test system is test strains of bacteria. Description: Inhibition of bacterial growth, whole panel of test strains. In kind it is cell-based. Here is the method: as §1
[10] abbreviates: B. subtilis Pol IIIC IC50, −dATP, in the absence of dATP.
Setting [11] is: B. subtilis Pol IIIC IC50, −dCTP, in the absence of dCTP.
Where [12] appears, read: B. subtilis Pol IIIC IC50, −dGTP, in the absence of dGTP.
[13] abbreviates: in the presence of all four dNTP substrates.
[14] abbreviates: B. subtilis Pol IIIE IC50, −dATP, in the absence of dATP.
The mark [15] stands for this setting: B. subtilis Pol IIIE IC50, −dCTP, in the absence of dCTP.
[16] abbreviates: B. subtilis Pol IIIE IC50, −dGTP, in the absence of dGTP.
[17] abbreviates: B. subtilis Pol IIIC IC50, 4 dNTPs, in the presence of all four dNTP substrates.

T2 sequence (O34623 whole entry): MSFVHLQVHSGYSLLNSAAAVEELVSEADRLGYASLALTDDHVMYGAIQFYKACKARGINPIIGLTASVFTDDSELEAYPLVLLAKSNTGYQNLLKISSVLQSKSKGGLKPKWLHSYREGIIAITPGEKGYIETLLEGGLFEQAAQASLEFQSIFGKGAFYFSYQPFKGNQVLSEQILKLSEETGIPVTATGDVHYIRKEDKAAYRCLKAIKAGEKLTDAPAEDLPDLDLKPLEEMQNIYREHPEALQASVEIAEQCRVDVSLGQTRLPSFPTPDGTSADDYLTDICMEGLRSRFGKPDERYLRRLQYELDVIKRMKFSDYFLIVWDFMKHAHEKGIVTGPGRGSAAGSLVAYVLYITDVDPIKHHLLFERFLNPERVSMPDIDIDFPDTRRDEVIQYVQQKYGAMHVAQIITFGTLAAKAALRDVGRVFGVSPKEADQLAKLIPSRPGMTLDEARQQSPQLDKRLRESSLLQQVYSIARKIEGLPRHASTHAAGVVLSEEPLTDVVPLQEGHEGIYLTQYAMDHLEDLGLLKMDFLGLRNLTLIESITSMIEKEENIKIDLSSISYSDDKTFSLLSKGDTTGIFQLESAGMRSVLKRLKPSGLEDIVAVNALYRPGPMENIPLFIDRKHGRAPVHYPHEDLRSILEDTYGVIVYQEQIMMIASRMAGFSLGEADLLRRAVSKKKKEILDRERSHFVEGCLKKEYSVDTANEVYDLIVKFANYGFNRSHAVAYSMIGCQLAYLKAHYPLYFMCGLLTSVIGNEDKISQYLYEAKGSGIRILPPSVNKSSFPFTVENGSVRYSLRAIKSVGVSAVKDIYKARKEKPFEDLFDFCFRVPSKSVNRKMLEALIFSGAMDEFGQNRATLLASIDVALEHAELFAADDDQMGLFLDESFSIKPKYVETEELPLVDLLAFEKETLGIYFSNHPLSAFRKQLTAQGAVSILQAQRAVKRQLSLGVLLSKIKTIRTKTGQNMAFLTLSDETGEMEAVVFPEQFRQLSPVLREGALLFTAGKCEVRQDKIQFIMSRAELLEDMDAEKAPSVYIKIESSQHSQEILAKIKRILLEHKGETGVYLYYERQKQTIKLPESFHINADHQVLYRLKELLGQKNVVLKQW
T3 sequence (P10443 whole entry): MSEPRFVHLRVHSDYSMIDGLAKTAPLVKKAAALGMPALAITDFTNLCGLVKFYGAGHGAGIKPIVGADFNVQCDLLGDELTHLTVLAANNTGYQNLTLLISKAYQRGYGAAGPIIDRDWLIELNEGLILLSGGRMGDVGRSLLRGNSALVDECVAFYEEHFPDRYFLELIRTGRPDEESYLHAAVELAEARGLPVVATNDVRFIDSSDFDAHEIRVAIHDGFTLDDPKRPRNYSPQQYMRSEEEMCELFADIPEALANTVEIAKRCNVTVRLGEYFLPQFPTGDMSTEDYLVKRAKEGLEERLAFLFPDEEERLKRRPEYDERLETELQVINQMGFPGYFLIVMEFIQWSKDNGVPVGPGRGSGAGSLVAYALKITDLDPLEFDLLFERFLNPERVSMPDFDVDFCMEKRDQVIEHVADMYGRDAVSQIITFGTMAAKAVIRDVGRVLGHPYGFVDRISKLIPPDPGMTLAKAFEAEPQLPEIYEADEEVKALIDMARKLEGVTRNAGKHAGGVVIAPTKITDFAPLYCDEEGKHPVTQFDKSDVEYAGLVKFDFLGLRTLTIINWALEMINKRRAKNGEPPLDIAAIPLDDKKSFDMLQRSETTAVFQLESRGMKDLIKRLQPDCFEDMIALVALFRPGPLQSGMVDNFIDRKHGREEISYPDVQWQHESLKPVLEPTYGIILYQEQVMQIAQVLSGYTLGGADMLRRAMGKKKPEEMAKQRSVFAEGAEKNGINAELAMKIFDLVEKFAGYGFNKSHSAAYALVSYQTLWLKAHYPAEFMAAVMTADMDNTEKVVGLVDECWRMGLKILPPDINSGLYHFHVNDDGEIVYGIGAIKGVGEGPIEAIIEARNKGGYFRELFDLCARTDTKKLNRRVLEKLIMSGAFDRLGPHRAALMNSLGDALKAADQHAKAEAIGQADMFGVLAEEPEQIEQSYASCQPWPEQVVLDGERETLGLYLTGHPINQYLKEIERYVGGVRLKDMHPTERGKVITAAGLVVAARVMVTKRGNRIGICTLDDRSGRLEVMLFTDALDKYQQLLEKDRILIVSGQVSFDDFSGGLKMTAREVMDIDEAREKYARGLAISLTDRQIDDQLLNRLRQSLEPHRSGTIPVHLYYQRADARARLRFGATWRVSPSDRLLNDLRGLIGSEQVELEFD
T1 sequence (P13267 whole entry): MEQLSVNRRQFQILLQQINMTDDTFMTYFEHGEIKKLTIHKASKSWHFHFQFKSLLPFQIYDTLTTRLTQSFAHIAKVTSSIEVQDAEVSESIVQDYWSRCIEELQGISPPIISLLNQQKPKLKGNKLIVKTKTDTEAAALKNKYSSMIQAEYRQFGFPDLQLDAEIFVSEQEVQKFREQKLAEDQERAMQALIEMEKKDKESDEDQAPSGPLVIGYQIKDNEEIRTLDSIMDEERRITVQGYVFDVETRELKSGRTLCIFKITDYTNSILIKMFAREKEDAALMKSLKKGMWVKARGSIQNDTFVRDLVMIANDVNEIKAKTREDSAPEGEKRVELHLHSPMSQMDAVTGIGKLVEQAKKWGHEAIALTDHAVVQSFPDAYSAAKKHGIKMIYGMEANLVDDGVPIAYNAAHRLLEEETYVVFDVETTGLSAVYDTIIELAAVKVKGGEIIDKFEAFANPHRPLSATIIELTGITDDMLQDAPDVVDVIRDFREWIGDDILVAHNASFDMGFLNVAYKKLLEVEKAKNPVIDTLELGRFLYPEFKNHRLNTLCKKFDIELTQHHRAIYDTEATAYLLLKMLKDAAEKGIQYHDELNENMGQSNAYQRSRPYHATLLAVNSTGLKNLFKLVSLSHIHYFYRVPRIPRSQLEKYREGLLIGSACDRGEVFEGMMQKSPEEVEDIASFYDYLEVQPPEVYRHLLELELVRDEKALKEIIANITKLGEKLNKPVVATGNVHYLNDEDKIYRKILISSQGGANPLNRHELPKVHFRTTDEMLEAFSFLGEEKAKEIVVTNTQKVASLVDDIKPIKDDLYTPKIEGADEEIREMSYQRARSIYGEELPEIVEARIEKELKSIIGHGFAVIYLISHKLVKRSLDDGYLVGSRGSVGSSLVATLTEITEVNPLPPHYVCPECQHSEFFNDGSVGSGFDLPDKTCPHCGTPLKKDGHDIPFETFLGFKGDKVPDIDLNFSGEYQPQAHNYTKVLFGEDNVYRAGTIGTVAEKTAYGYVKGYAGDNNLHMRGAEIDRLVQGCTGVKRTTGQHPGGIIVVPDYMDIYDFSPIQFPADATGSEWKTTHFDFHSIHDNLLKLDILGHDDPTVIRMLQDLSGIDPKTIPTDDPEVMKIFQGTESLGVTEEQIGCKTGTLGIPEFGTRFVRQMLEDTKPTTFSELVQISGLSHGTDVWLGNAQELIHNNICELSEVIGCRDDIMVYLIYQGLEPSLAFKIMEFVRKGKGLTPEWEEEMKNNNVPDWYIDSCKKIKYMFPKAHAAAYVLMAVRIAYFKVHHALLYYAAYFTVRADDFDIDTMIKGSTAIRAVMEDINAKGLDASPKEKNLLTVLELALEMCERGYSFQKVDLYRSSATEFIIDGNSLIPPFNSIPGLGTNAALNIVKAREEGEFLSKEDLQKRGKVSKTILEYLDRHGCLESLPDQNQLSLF

`COc1cc(C=NNC(=O)c2cc(-c3ccccc3)n[nH]2)ccc1O` [Compound 5]: the MIC in [1] was > 80 µg/mL; in test [2] it was 80 µg/mL (≈ 238 µM); in the test on S. aureus Smith strain, 40 µg/mL (≈ 119 µM); in test [3], 60 µg/mL (≈ 178 µM); in [4], 40 µg/mL (≈ 119 µM); in [6] it was 40 µg/mL (≈ 119 µM). Moreover, the results for the MIC in [8] and in test [9] were 20 µg/mL (≈ 59.5 µM) and 40 µg/mL (≈ 119 µM), respectively. The inhibition at 80 µg/mL is 4.8% on B. subtilis pol IIIC, > 20% at B. subtilis pol IIIE [5] and 2% on E. coli pol IIIE (read-out: Percent Enzymatic Inhibition E. coli pol IIIE). In addition, the negative-log IC50 (pIC50) on B. subtilis pol IIIC (setting [10]) was 4.39; against B. subtilis pol IIIC (setting [11]) it was 3.58; at B. subtilis pol IIIC (setting [12]), 4.05; at B. subtilis pol IIIE [5] (setting [13]), 3.69; on B. subtilis pol IIIE [7] (setting [14]), 3.67; against B. subtilis pol IIIE [7] (setting [15]), 3.42. The same molecule showed a pIC50 against B. subtilis pol IIIE [7] (setting [16]) of 3.95. Further, the “B. subtilis Pol IIIC IC50, 4 dNTPs” value on B. subtilis pol IIIC (setting [13]) is recorded as “Inactive”.
As to `COc1ccc(-c2cc(C(=O)NN=Cc3ccc(O)cc3)[nH]n2)cc1` [Compound 16], the MIC was > 80 µg/mL in test [1]; > 80 µg/mL in test [2]; > 80 µg/mL with S. aureus Smith strain; > 80 µg/mL in [3]; > 80 µg/mL in [4]; 80 µg/mL (≈ 238 µM) in [6]. Besides, the MIC in test [8] and in test [9] was > 80 µg/mL in each case. In addition, the inhibition at 80 µg/mL was 9.9% on B. subtilis pol IIIC and > 20% at B. subtilis pol IIIE [5]. Besides, the negative-log IC50 (pIC50) against B. subtilis pol IIIC (setting [10]) is 4.05; against B. subtilis pol IIIC (setting [11]), 4.02; at B. subtilis pol IIIC (setting [12]) it was 4.22; against B. subtilis pol IIIE [7] (setting [14]), 3.93; against B. subtilis pol IIIE [7] (setting [15]) it was 3.81; against B. subtilis pol IIIE [7] (setting [16]) it was 3.50. Moreover, the “B. subtilis Pol IIIC IC50, 4 dNTPs” value on B. subtilis pol IIIC (setting [13]) is listed as “Inactive”. The “B. subtilis Pol IIIE IC50, 4 dNTPs” value on B. subtilis pol IIIE [5] (setting [13]) is recorded as “Inactive”. On E. coli pol IIIE, the “Percent Enzymatic Inhibition E. coli pol IIIE” value is reported as “Inactive”.
`COc1ccc(-c2cc(C(=O)NN=Cc3ccc(OC)c(OC)c3)[nH]n2)cc1` [Compound 18]: the MIC in test [1] is > 80 µg/mL; in [2], 20 µg/mL (≈ 52.6 µM); in the test on S. aureus Smith strain, 5 µg/mL (≈ 13.1 µM); in test [3] it was 2.5 µg/mL (≈ 6.57 µM); in [4], 10 µg/mL (≈ 26.3 µM); in test [6], 20 µg/mL (≈ 52.6 µM). For the same molecule, the MIC in [8] is 5 µg/mL (≈ 13.1 µM); in test [9] it was 40 µg/mL (≈ 105 µM). Moreover, the inhibition at 80 µg/mL on B. subtilis pol IIIC and on B. subtilis pol IIIE [5] was > 20% in each case. Besides, the negative logarithm of the IC50 (pIC50) is 3.04 on B. subtilis pol IIIC (setting [17]); 4.64 against B. subtilis pol IIIC (setting [10]); 5.19 against B. subtilis pol IIIC (setting [11]); 5.26 against B. subtilis pol IIIC (setting [12]); 3.56 on B. subtilis pol IIIE [5] (setting [13]); 3.46 on B. subtilis pol IIIE [7] (setting [14]). Moreover, the negative-log IC50 (pIC50) against B. subtilis pol IIIE [7] (setting [15]) and against B. subtilis pol IIIE [7] (setting [16]) was < 3.00 each time. In addition, in the test on test strains of bacteria, the “Inhibition of bacterial growth, result in words (rank of MIC values)” value was “third place”.
For the molecule `CCOc1ccc(-c2cc(C(=O)NN=Cc3ccc(O)c(OC)c3)[nH]n2)cc1` [Compound 19], the MIC was > 80 µg/mL in test [1]; > 80 µg/mL in test [2]; > 80 µg/mL in the test with S. aureus Smith strain; 2.5 µg/mL (≈ 6.57 µM) in test [3]; 5 µg/mL (≈ 13.1 µM) in test [4]; 10 µg/mL (≈ 26.3 µM) in [6]. The MIC in test [8] is 80 µg/mL (≈ 210 µM); in test [9], > 80 µg/mL. In addition, the figures for the inhibition at 80 µg/mL at B. subtilis pol IIIC and on B. subtilis pol IIIE [5] were > 20% and 10.1%, respectively. The pIC50 at B. subtilis pol IIIC (setting [17]) was 4.64; against B. subtilis pol IIIC (setting [10]), 5.05; at B. subtilis pol IIIC (setting [11]) it was 5.48; against B. subtilis pol IIIC (setting [12]), 5.29; on B. subtilis pol IIIE [5] (setting [13]) it was < 3.08; against B. subtilis pol IIIE [7] (setting [14]), < 3.08. Further, the negative logarithm of the IC50 (pIC50) against B. subtilis pol IIIE [7] (setting [15]) and on B. subtilis pol IIIE [7] (setting [16]) was < 3.08 in each case. Moreover, the “Percent Enzymatic Inhibition E. coli pol IIIE” value at E. coli pol IIIE is given as “Inactive”.
